Test [1] concerns HCV genotype 1a (H77 strain) replicon in HUH-7 cells. The test can be described thus: HCV replicon luciferase reporter assay, genotype 1a. It is filed as cell-based. The note with it: Hepatitis C virus, Huh-7, 72 h, HCV genotype 1a replicon luciferase, 3 days incubation, read-out: LE_1a (EC50, range). The method in brief:
(§1)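 Replicon inhibition for both genotypes was measured as Renilla luciferase signal (EnduRen, 7.5 μM final, 2 h) after 3-day, 37° C exposure of replicon-bearing HUH-7 cells in 4% FCS DMEM, 0.5% DMSO. The 1b construct carries S1179I; the 1a H77 construct carries P1496L and S2204I. Twenty-point, 3-fold dilutions were fitted four-parametrically for EC50, and CC50 was taken from multiplexed Cell Titer-Blue.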

Test [2] deals with HCV genotype 1b (Con1) replicon in HUH-7 cells. The test can be described thus: HCV replicon luciferase reporter assay, genotype 1b. It is filed as cell-based. The note with it: Hepatitis C virus, Huh-7, 72 h, HCV genotype 1b replicon luciferase, 3 days incubation, read-out: LE_1b (EC50, range). The gist of the method:
as §1

Where two headings read alike, the source gives them in different places.

A word on the EC50: it is the concentration at which the effect is half-maximal.

Consider `COc1ccc2nc(C)c(O[C@@H]3C[C@H]4C(=O)N[C@]5(C(=O)NS(=O)(=O)C6(C)CC6)C[C@H]5/C=C\CC[C@@H](C)C[C@@H](C)[C@H](NC(=O)OC(C)(C)C)C(=O)N4C3)nc2c1` [Compound 4109, tert-butyl (2R,6S,7R,9R,13aS,14aR,16aS,Z)-2-(7-methoxy-3-methylquinoxalin-2-yloxy)-7,9-dimethyl-14a-(1-methylcyclopropylsulfonylcarbamoyl)-5,16-dioxo-1,2,3,5,6,7,8,9,10,11,13a,14,14a,15,16,16a-hexadecahydrocyclopropa[e]pyrrolo[1,2-a][1,4]diazacyclopentadecin-6-ylcarbamate], for which the EC50 in test [1] and in test [2] was less than 5.46 nM throughout.

Consider `COc1cnc(O[C@@H]2C[C@H]3C(=O)N[C@]4(C(=O)NS(=O)(=O)C5(CO)CC5)C[C@H]4/C=C\CC[C@@H](C)C[C@@H](C)[C@H](NC(=O)OC(C)(C)C(F)(F)F)C(=O)N3C2)c2ccccc12` [Compound 4110], for which the EC50 in test [1] (GETYPE1A) and in test [2] (GETYPE1B) was 4.82 to 103 nM each time.

As for `COc1cnc(O[C@@H]2C[C@H]3C(=O)N[C@]4(C(=O)NS(=O)(=O)C5(CO)CC5)C[C@H]4/C=C\CC[C@H](C)C[C@@H](C)[C@H](NC(=O)OC(C)(C)C(F)(F)F)C(=O)N3C2)c2ccccc12` [Compound 4111], the figures for the EC50 in test [1] (GETYPE1A) and in test [2] (GETYPE1B) were more than 87.4 nM and 4.82 to 103 nM, respectively.

As for `COc1cnc(O[C@@H]2C[C@H]3C(=O)N[C@]4(C(=O)NS(=O)(=O)C5(CO)CC5)C[C@H]4/C=C\CC[C@@H](C)C[C@@H](C)[C@H](N)C(=O)N3C2)c2ccccc12` [Compound 4112, (2R,6S,7R,9R,13aS,14aR,16aS,Z)-6-amino-N-(1-(hydroxymethyl)cyclopropylsulfonyl)-2-(4-methoxyisoquinolin-1-yloxy)-7,9-dimethyl-5,16-dioxo-1,2,3,5,6,7,8,9,10,11,13a,14,14a,15,16,16a-hexadecahydrocyclopropa[e]pyrrolo[1,2-a][1,4]diazacyclopentadecine-14a-carboxamide], the EC50 in test [1] and in test [2] was more than 87.4 nM throughout.

Turning to `COc1cnc(O[C@@H]2C[C@H]3C(=O)N[C@]4(C(=O)NS(=O)(=O)C5(CO)CC5)C[C@H]4/C=C\CC[C@H](C)C[C@@H](C)[C@H](N)C(=O)N3C2)c2ccccc12` [Compound 4113, (2R,6S,7R,9S,13aS,14aR,16aS,Z)-6-amino-N-(1-(hydroxymethyl)cyclopropylsulfonyl)-2-(4-methoxyisoquinolin-1-yloxy)-7,9-dimethyl-5,16-dioxo-1,2,3,5,6,7,8,9,10,11,13a,14,14a,15,16,16a-hexadecahydrocyclopropa[e]pyrrolo[1,2-a][1,4]diazacyclopentadecine-14a-carboxamide], the EC50 in test [1] and in test [2] was more than 87.4 nM in each case.

Consider `COc1cnc(O[C@@H]2C[C@H]3C(=O)N[C@]4(C(=O)NS(=O)(=O)C5(CO)CC5)C[C@H]4/C=C\CC[C@@H](C)C[C@@H](C)[C@H](NC(=O)OC(C)(C)C)C(=O)N3C2)c2ccccc12` [Compound 4114, tert-butyl (2R,6S,7R,9R,13aS,14aR,16aS,Z)-14a-(1-(hydroxymethyl)cyclopropylsulfonylcarbamoyl)-2-(4-methoxyisoquinolin-1-yloxy)-7,9-dimethyl-5,16-dioxo-1,2,3,5,6,7,8,9,10,11,13a,14,14a,15,16,16a-hexadecahydrocyclopropa[e]pyrrolo[1,2-a][1,4]diazacyclopentadecin-6-ylcarbamate], for which the EC50 in test [1] and in test [2] was 4.82 to 103 nM in each case.

In the case of `COc1cnc(O[C@@H]2C[C@H]3C(=O)N[C@]4(C(=O)NS(=O)(=O)C5(CO)CC5)C[C@H]4/C=C\CC[C@H](C)C[C@@H](C)[C@H](NC(=O)OC(C)(C)C)C(=O)N3C2)c2ccccc12` [Compound 4115, tert-butyl (2R,6S,7R,9S,13aS,14aR,16aS,Z)-14a-(1-(hydroxymethyl)cyclopropylsulfonylcarbamoyl)-2-(4-methoxyisoquinolin-1-yloxy)-7,9-dimethyl-5,16-dioxo-1,2,3,5,6,7,8,9,10,11,13a,14,14a,15,16,16a-hexadecahydrocyclopropa[e]pyrrolo[1,2-a][1,4]diazacyclopentadecin-6-ylcarbamate], the EC50 in test [1] and in test [2] was less than 5.46 nM in each case.

Take `COc1cc2c(OC)cnc(O[C@@H]3C[C@H]4C(=O)N[C@]5(C(=O)NS(=O)(=O)C6(CF)CC6)C[C@H]5/C=C\CC[C@@H](C)C[C@@H](C)[C@H](NC(=O)C(C)(C)C)C(=O)N4C3)c2cc1F` [Compound 4116, (2R,6S,7R,9R,13aS,14aR,16aS,Z)-2-(7-fluoro-4,6-dimethoxyisoquinolin-1-yloxy)-N-(1-(fluoromethyl)cyclopropylsulfonyl)-7,9-dimethyl-5,16-dioxo-6-pivalamido-1,2,3,5,6,7,8,9,10,11,13a,14,14a,15,16,16a-hexadecahydrocyclopropa[e]pyrrolo[1,2-a][1,4]diazacyclopentadecine-14a-carboxamide]: the EC50 in test [1] and in test [2] was less than 5.46 nM in each case.

In the case of `COc1cc2c(OC)cnc(O[C@@H]3C[C@H]4C(=O)N[C@]5(C(=O)NS(=O)(=O)C6(CF)CC6)C[C@H]5/C=C\CC[C@@H](C)C[C@@H](C)[C@H](NC(=O)c5c(F)cc(F)cc5F)C(=O)N4C3)c2cc1F` [Compound 4117, (2R,6S,7R,9R,13aS,14aR,16aS,Z)-2-(7-fluoro-4,6-dimethoxyisoquinolin-1-yloxy)-N-(1-(fluoromethyl)cyclopropylsulfonyl)-7,9-dimethyl-5,16-dioxo-6-(2,4,6-trifluorobenzamido)-1,2,3,5,6,7,8,9,10,11,13a,14,14a,15,16,16a-hexadecahydrocyclopropa[e]pyrrolo[1,2-a][1,4]diazacyclopentadecine-14a-carboxamide], the EC50 in test [1] and in test [2] was less than 5.46 nM each time.

Take `COc1cc2c(OC)cnc(O[C@@H]3C[C@H]4C(=O)N[C@]5(C(=O)NS(=O)(=O)C6(CF)CC6)C[C@H]5/C=C\CC[C@@H](C)C[C@@H](C)[C@H](NC(=O)c5ccc(F)cc5F)C(=O)N4C3)c2cc1F` [Compound 4118, (2R,6S,7R,9R,13aS,14aR,16aS,Z)-6-(2,4-difluorobenzamido)-2-(7-fluoro-4,6-dimethoxyisoquinolin-1-yloxy)-N-(1-(fluoromethyl)cyclopropylsulfonyl)-7,9-dimethyl-5,16-dioxo-1,2,3,5,6,7,8,9,10,11,13a,14,14a,15,16,16a-hexadecahydrocyclopropa[e]pyrrolo[1,2-a][1,4]diazacyclopentadecine-14a-carboxamide]: the EC50 in test [1] and in test [2] was less than 5.46 nM throughout.

On to `COc1cc2c(OC)cnc(O[C@@H]3C[C@H]4C(=O)N[C@]5(C(=O)NS(=O)(=O)C6(CF)CC6)C[C@H]5/C=C\CC[C@@H](C)C[C@@H](C)[C@H](NC(=O)C5(C(F)(F)F)CC5)C(=O)N4C3)c2cc1F` [Compound 4119, (2R,6S,7R,9R,13aS,14aR,16aS,Z)-2-(7-fluoro-4,6-dimethoxyisoquinolin-1-yloxy)-N-(1-(fluoromethyl)cyclopropylsulfonyl)-7,9-dimethyl-5,16-dioxo-6-(1-(trifluoromethyl)cyclopropanecarboxamido)-1,2,3,5,6,7,8,9,10,11,13a,14,14a,15,16,16a-hexadecahydrocyclopropa[e]pyrrolo[1,2-a][1,4]diazacyclopentadecine-14a-carboxamide], for which the EC50 in test [1] and in test [2] was less than 5.46 nM in each case.

As to `COc1ccc2c(O[C@@H]3C[C@H]4C(=O)N[C@]5(C(=O)NS(=O)(=O)C6(CF)CC6)C[C@H]5/C=C\CC[C@@H](C)C[C@@H](C)[C@H](NC(=O)OC(C)(C)C(F)(F)F)C(=O)N4C3)ncc(N3CCOCC3)c2c1` [Compound 4120], the EC50 in test [1] and in test [2] was less than 5.46 nM each time.

Take `COc1cc2c(OC)cnc(O[C@@H]3C[C@H]4C(=O)N[C@]5(C(=O)NS(=O)(=O)C6(CO)CC6)C[C@H]5/C=C\CC[C@@H](C)C[C@@H](C)[C@H](NC(=O)OC(C)(C)C)C(=O)N4C3)c2cc1F` [Compound 4122, tert-butyl (2R,6S,7R,9R,13aS,14aR,16aS,Z)-2-(7-fluoro-4,6-dimethoxyisoquinolin-1-yloxy)-14a-(1-(hydroxymethyl)cyclopropylsulfonylcarbamoyl)-7,9-dimethyl-5,16-dioxo-1,2,3,5,6,7,8,9,10,11,13a,14,14a,15,16,16a-hexadecahydrocyclopropa[e]pyrrolo[1,2-a][1,4]diazacyclopentadecin-6-ylcarbamate]: the EC50 in test [1] and in test [2] was less than 5.46 nM each time.

Turning to `COc1cc2c(OC)cnc(O[C@@H]3C[C@H]4C(=O)N[C@]5(C(=O)NS(=O)(=O)C6(CO)CC6)C[C@H]5/C=C\CC[C@H](C)C[C@@H](C)[C@H](NC(=O)OC(C)(C)C)C(=O)N4C3)c2cc1F` [Compound 4123, tert-butyl (2R,6S,7R,9S,13aS,14aR,16aS,Z)-2-(7-fluoro-4,6-dimethoxyisoquinolin-1-yloxy)-14a-(1-(hydroxymethyl)cyclopropylsulfonylcarbamoyl)-7,9-dimethyl-5,16-dioxo-1,2,3,5,6,7,8,9,10,11,13a,14,14a,15,16,16a-hexadecahydrocyclopropa[e]pyrrolo[1,2-a][1,4]diazacyclopentadecin-6-ylcarbamate], the concentration giving a half-maximal response (EC50) in test [1] and in test [2] was 4.82 to 103 nM in each case.

As for `COc1ccc2c(O[C@@H]3C[C@H]4C(=O)N[C@]5(C(=O)NS(=O)(=O)C6(Cl)CC6)C[C@H]5/C=C\CC[C@@H](C)C[C@@H](C)[C@H](NC(=O)OC(C)(C)C(F)(F)F)C(=O)N4C3)ncc(OC)c2c1` [Compound 4124], the EC50 in test [1] (GETYPE1A) and in test [2] (GETYPE1B) was less than 5.46 nM each time.

(Values after patent publication US9499550B2 (BRISTOL-MYERS SQUIBB COMPANY, priority 2012, dated 2016).)
